Results taken from patent US20200163984A1, “USE OF ISOVALERYL SPIRAMYCIN I, II AND/OR III IN MANUFACTURING MEDICAMENT FOR TREATING AND/OR PREVENTING TUMOR, AND MEDICAMENT” (SHENYANG FUYANG PHARMACEUTICAL TECHNOLOGY CO., LTD., priority 2017, published 2020).
In brackets after ≈: the same amount, converted by molar mass.

Tests used:
[1] = test system: transplanted tumor of human renal cell adenocarcinoma cell 769-P; assay: 769-P transplanted tumor in nude mice; settings: for Tumor Volume (mm3) (d 1): d1
Description: Then cell concentration was adjusted to 1×10^7/ml with matrigel, then each nude mouse was inoculated subcutaneously with 0.2 ml of cells at its right armpit and recorded as the first day of inoculation. When the tumor grows to be greater than or equal to 100 mm^3, the mice were randomly divided into 11 groups with 6 mice in each group: a model group, a cyclophosphamide group, isovaleryl spiramycin I groups with doses of 25, 50 and 100 mg/kg, isovaleryl spiramycin II groups with doses of 25, 50 and 100 mg/kg, and isovaleryl spiramycin III groups with doses of 25, 50 and 100 mg/kg. Each group was continuously administered intragastrically for 30 days with a dose of 20 ml/kg. The mice were sacrificed the next day after drug withdrawal and the indicators were tested. The long diameter and short diameter of the tumor, and the weight of each mouse were recorded every 3 days from drug administration to nude mouse sacrifice.
The body weight of the nude mice and the long diameter (a) and short diameter (b) of the transplanted tumor were measured every 3 days, and the tumor volume (v), relative tumor volume (RTV) and relative tumor proliferation rate (T/C) are calculated respectively according to the following formulas, wherein V=a×b^2/2; RTV=V/V0 (V0 is the tumor volume before administration, V is the tumor volume before sacrifice), and T/C (%)=treatment group RTV/model control group RTV×100%.
Each mouse was weighed and sacrificed. After the tumor was completely stripped off from the body of the mouse, the non-tumor tissues such as blood stains and fat were removed to weigh the tumor and calculate the tumor growth inhibition rate. The average tumor weight of each group of mice is used as an indicator of efficacy. Tumor growth inhibition rate (%)=(1−the average tumor weight of the treatment group/the average tumor weight of the model group)×100%.

[2] = test system: human tissue lymphoma cell U937; settings: U937, MTT, 48 h
Description: (§1) The purpose of the assay is to evaluate the in vitro cell proliferation inhibition or cytotoxic activity of a tested sample.
(§2) U937 and HL-60 were suspension cells, and cells in a logarithmic growth phase were selected and prepared into a 2×10^5/ml cell suspension by a RPMI 1640 culture medium containing 10% fetal bovine serum. And the cell suspension was inoculated in a 96-well culture plate, and each well was 50 μL and the 96-well culture plate was cultured at 37° C. and 5% CO2 for 24 hours. 50 μL of a culture medium containing different concentrations of the tested sample isovaleryl spiramycin I, isovaleryl spiramycin II, or isovaleryl spiramycin III was added in the experimental group, while a culture medium containing the same volume of solvent was added into the control group. Each group was set up with 3 parallel wells that were cultured at 37° C. and 5% CO2 for 48 h. And 10 μL of freshly prepared medium containing 5 mg/ml MTT was added into each well for continuous incubation for 4 hours at 37° C. The crystals were dissolved in 100 μL of a triple solution (SDS 10 g, 10 M HCl 0.1 mL, isobutanol 5 mL, diluted with distilled water to 100 mL), and incubated at 37° C. for 12 hours. The optical density value was measured at 492 nm with a microplate reader.
(§3) The inhibition rate of the medicament on tumor cell growth is calculated according to the following formula:
(§4) Tumor cell growth inhibition rate (%)=[A492 (negative control)−A492 (dosing group)]/A492 (negative control)×100%
(§5) And the half-inhibitory concentration (IC50) of the sample is determined therefrom.

[3] = test system: human promyelocytic leukemia cell HL-60; settings: HL-60, MTT, 48 h
Description: as §1, §2, §3, §4, §5

[4] = test system: transplanted tumor of mouse H22 liver cancer; assay: Transplanted tumor of mouse H22 liver cancer; settings: for Tumor Volume (mm3) (d30): d 30; for Body Weight (g) (d1) / Body Weight (g) (d 7): mouse, in vivo
Description: The H22 cell strains cryopreserved in liquid nitrogen were resuscitated in Kunming mice. After 3 generations, the ascites of Kunming mice were taken and placed in a 50 ml centrifuge tube in which 10 ml of 0.9% normal saline was added, and then centrifuging was performed at 1000 rpm for 5 min at room temperature, and the obtained supernatant was removed. Then 10 ml of 0.9% normal saline was added to the tube to blow and mix well, and then the mixture was diluted to 5×10^6 live cells/ml with normal saline after counting. The tube was stored in ice water, and 75% ethanol was used to disinfect the skin under the right armpits of the mice. Each Kunming mouse was soon inoculated subcutaneously with 0.2 ml of the cells at the armpit of the right forelimb.
In the H22 liver cancer model, the mice inoculated with the tumor were randomly divided into groups with 10 mice in each group on the next day of inoculation. The groups included: a model control group, a positive drug cyclophosphamide control group (CTX, 26 mg/kg), isovaleryl spiramycin I groups with doses of 13, 26 and 52 mg/kg; isovaleryl spiramycin II groups with doses of 13, 26 and 52 mg/kg; isovaleryl spiramycin III groups with doses of 13, 26 and 52 mg/kg. Each group was continuously administered intragastrically for 7 days with a dose of 20 ml/kg.
The tumor-bearing mice were weighed and sacrificed the next day after the last administration. The subcutaneous tumors were dissected and weighed. The average tumor weight of each group is calculated, and the tumor inhibition rate is calculated.
Tumor inhibition rate=(1−T/C)×100%
T: average tumor weight of the drug-administered group; C: average tumor weight of the blank control group.

[5] = 769-P, high dose (100 mg/kg in method) i.g. 30 days
[6] = 769-P, low dose (25 mg/kg in method) i.g. 30 days
[7] = 769-P, medium dose (50 mg/kg in method) i.g. 30 days

COC1C(OC(C)=O)CC(=O)OC(C)CC=CC=CC(OC2CCC(N(C)C)C(C)O2)C(C)CC(CC=O)C1OC1OC(C)C(OC2CC(C)(O)C(OC(=O)CC(C)C)C(C)O2)C(N(C)C)C1O (centres unmarked) [Isovaleryl spiramycin II, isovaleryl spiramycin II]
Inhibition Rate (%) ([1]; 769-P nude mice, 25 mg/kg): 38.29% | Relative Tumor Proliferation Rate (T/C) ([1]; 769-P nude mice, 25 mg/kg): 68.22% | Relative Tumor Volume (RTV) ([1]; 769-P nude mice, 25 mg/kg): 12.59 ± 5.32 | Tumor Weight ([1]; 769-P nude mice, 25 mg/kg): 1.27 ± 0.42 g | Tumor Volume (mm3) (d 1) ([1]; 769-P nude mice, 25 mg/kg): 162.50 ± 59.24 mm3 | Tumor Volume (mm3) (d30) ([1]; 769-P nude mice, 25 mg/kg): 2045.85 ± 301.35 mm3 | Inhibition Rate (%) ([1]; 769-P nude mice, 50 mg/kg): 47.61% | Relative Tumor Proliferation Rate (T/C) ([1]; 769-P nude mice, 50 mg/kg): 42.64% | Relative Tumor Volume (RTV) ([1]; 769-P nude mice, 50 mg/kg): 7.87 ± 2.29 | Tumor Weight ([1]; 769-P nude mice, 50 mg/kg): 1.3 ± 0.23 g | Tumor Volume (mm3) (d 1) ([1]; 769-P nude mice, 50 mg/kg): 193.10 ± 35.41 mm3 | Tumor Volume (mm3) (d30) ([1]; 769-P nude mice, 50 mg/kg): 1519.68 ± 239.38 mm3 | Inhibition Rate (%) ([1]; 769-P nude mice, 100 mg/kg): 61.79% | Relative Tumor Proliferation Rate (T/C) ([1]; 769-P nude mice, 100 mg/kg): 34.76% | Relative Tumor Volume (RTV) ([1]; 769-P nude mice, 100 mg/kg): 6.42 ± 0.99 | Tumor Weight ([1]; 769-P nude mice, 100 mg/kg): 0.79 ± 0.06 g | Tumor Volume (mm3) (d 1) ([1]; 769-P nude mice, 100 mg/kg): 109.14 ± 10.13 mm3 | Tumor Volume (mm3) (d30) ([1]; 769-P nude mice, 100 mg/kg): 700.14 ± 100.08 mm3 | Relative Tumor Proliferation Rate (T/C) [1, 5]: 34.76% | tumor growth inhibition rate [1, 5]: 61.79% | Relative Tumor Proliferation Rate (T/C) [1, 6]: 68.22% | tumor growth inhibition rate [1, 6]: 38.29% | tumor volume and relative tumor volume compared with the model group ([1]; 769-P, low, medium and high doses, P<0.05): significantly lower | Relative Tumor Proliferation Rate (T/C) [1, 7]: 42.64% | tumor growth inhibition rate [1, 7]: 47.61% | mouse weight compared with the model group ([1]; mouse, in vivo): no significant changes | Body Weight (g) (d1) ([1]; mouse, in vivo, 25 mg/kg): 22.17 ± 1.47 g | Body Weight (g) (d30) ([1]; mouse, in vivo, 25 mg/kg): 22.05 ± 0.71 g | Body Weight (g) (d1) ([1]; mouse, in vivo, 50 mg/kg): 22.07 ± 1.52 g | Body Weight (g) (d30) ([1]; mouse, in vivo, 50 mg/kg): 22.42 ± 0.54 g | Body Weight (g) (d1) ([1]; mouse, in vivo, 100 mg/kg): 21.96 ± 1.19 g | Body Weight (g) (d30) ([1]; mouse, in vivo, 100 mg/kg): 22.33 ± 0.41 g | IC50 [2]: 34.92 ± 0.81 µg/mL (≈ 36 µM) | IC50 [3]: 29.39 ± 1.82 µg/mL (≈ 30.3 µM) | growth of H22 liver cancer in mice ([4]; 13, 26 and 52 mg/kg i.g. 7 days): significantly inhibit | Relative Tumor Proliferation Rate (T/C) ([4]; dose 12.5 mg/kg): 78.85 | Relative Tumor Volume (RTV) ([4]; dose 12.5 mg/kg): 7.83 ± 1.50 | Tumor Volume (mm3) (d 1) ([4]; dose 12.5 mg/kg): 120.80 ± 18.48 mm3 | Tumor Volume (mm3) (d30) ([4]; dose 12.5 mg/kg): 931.38 ± 141.51 mm3 | Inhibition Rate (%) ([4]; dose 13 mg/kg): 19.74% | Tumor ([4]; dose 13 mg/kg): 1.22 ± 0.31 g | Relative Tumor Proliferation Rate (T/C) ([4]; dose 25 mg/kg): 66.04 | Relative Tumor Volume (RTV) ([4]; dose 25 mg/kg): 6.56 ± 2.19 | Tumor Volume (mm3) (d 1) ([4]; dose 25 mg/kg): 118.02 ± 10.35 mm3 | Tumor Volume (mm3) (d30) ([4]; dose 25 mg/kg): 779.30 ± 292.34 mm3 | Inhibition Rate (%) ([4]; dose 26 mg/kg): 30.26% | Tumor ([4]; dose 26 mg/kg): 1.06 ± 0.33 g | Relative Tumor Proliferation Rate (T/C) ([4]; dose 50 mg/kg): 56.20 | Relative Tumor Volume (RTV) ([4]; dose 50 mg/kg): 5.58 ± 0.95 | Tumor Volume (mm3) (d 1) ([4]; dose 50 mg/kg): 118.18 ± 14.68 mm3 | Tumor Volume (mm3) (d30) ([4]; dose 50 mg/kg): 659.02 ± 138.35 mm3 | Inhibition Rate (%) ([4]; dose 52 mg/kg): 45.39% | Tumor ([4]; dose 52 mg/kg): 0.83 ± 0.46 g | Body Weight (g) (d1) ([4]; 13 mg/kg): 24.22 ± 2.15 g | Body Weight (g) (d 7) ([4]; 13 mg/kg): 27.27 ± 2.20 g | Body Weight (g) (d1) ([4]; 26 mg/kg): 24.72 ± 1.69 g | Body Weight (g) (d 7) ([4]; 26 mg/kg): 27.35 ± 0.80 g | Body Weight (g) (d1) ([4]; 52 mg/kg): 23.45 ± 1.69 g | Body Weight (g) (d 7) ([4]; 52 mg/kg): 27.02 ± 0.90 g
